“Also recorded” adds a separate entry of the source. Where two headings read alike, the source gives them in different places.
Legend:
PC 12 cells [1] = test: Cytotoxicity under light irradiation, WST-8 cell viability, Test Example 2; assay type: cell-based, rat; conditions: LED 660 nm, 10 mW, 5 minutes, then 48 hours
Method: A culture medium for rat adrenal medulla-derived pheochromocytoma PC 12 cells (purchased from RIKEN, Japan) seeded on a poly-D-lysine-coated 96-well plate was replaced with 75 μL of a Dulbecco's modified Eagle's medium containing 0.1% horse serum, and the culture was incubated in a 5% CO2 atmosphere at 37° C. for 1 day, and 25 μL of a phosphate buffer saline (pH 7.4) containing a inventive compound was then added thereto. Thereafter, the mixed solution was incubated under LED irradiation (wavelength: 660 nm, 10 mW) (without light irradiation for dark) at 37° C. for 5 minutes. Further, the cell culture plate containing the reaction solution was incubated in a 5% CO2 atmosphere at 37° C. for 48 hours. Finally, the Cell Count Reagent SF (10 μL: purchased from NACALAI TESQUE, INC.) containing WST-8 was added, and the culture was incubated in a 5% CO2 atmosphere at 37° C. for 3 hours, and thereafter the cell viability was determined from the absorbance at 450 nm (reference wavelength: 655 nm).

Aβ1-42 [2] = target: T1, Aβ1-42 (Homo sapiens, UniProt P05067); test: In vitro oxygenation experiment using Aβ1-42 as a substrate (MALDI-TOF MS), Test Example 1; assay type: biochemical; conditions: test compound 1 μM, Aβ1-42 10 μM, LED irradiation at 730 nm, 37° C.
T1 construct: phosphate buffer (pH 7.4)/cell culture solution (containing 0.1% horse serum) (1:3) containing Aβ1-42 (10 μM)
Method: An in vitro oxygenation experiment using Aβ1-42 as a substrate was conducted to confirm that each of the inventive compounds actually have Aβ oxygenation activity. A test compound (1 μM in each case) was added to phosphate buffer (pH 7.4)/cell culture solution (containing 0.1% horse serum) (1:3) containing Aβ1-42 (10 μM), and incubated under LED irradiation (wavelength: 660 nm, 730 nm) at 37° C., and then the reaction was tracked by using a mass spectrometer (MALDI-TOF MS). The native Aβ1-42 and the Na^+ adduct were mainly observed before light irradiation. After light irradiation, an ion peak indicating the presence of the oxygenated form was observed over time (FIG. 1, FIG. 2).

[3] = Maximum wavelength λmax of photocatalysts; assay type: physicochemical; conditions: Table 1
[4] = Oxygenation of benzoylmethionine in glycerol/water (LC/MS), Test Example 4; conditions: compound 2 μM, benzoylmethionine 2000 μM, glycerol/water 0:100 to 50:50, LED 730 nm, room temperature
Method: The compound K (2 μM) was added to glycerol/water (0:100, 10:90, 30:70, 50:50) dissolving benzoylmethionine (2000 μM) therein, and the resultant was subjected to LED irradiation (wavelength: 730 nm) at room temperature, and thereafter the reaction was tracked by using LC/MS (ESI-Q).

[5] = Stability of catalyst in neutral phosphate buffer without or under light irradiation (HPLC), Test Example 5; assay type: physicochemical; conditions: under light irradiation (660 nm)
Method: A neutral phosphate buffer containing a catalyst was incubated without light irradiation or under light irradiation (660 nm), and thereafter ethanol containing benzyl alcohol (as an internal standard) was added thereto, and analysis was performed by using HPLC.

PC 12 cells [6] = assay type: cell-based; conditions: 5 minutes then 48 hours, n=5, mean±SEM, Table 1
Method: Rat pheochromocytoma PC 12 cells were suspended with DMEM containing 5% horse serum and 10% fetal bovine serum, seeded in a poly-D-lysine-coated 96-well plate at a concentration of 10,000 cells per well, and incubated in a 5% carbon dioxide atmosphere at 37° C. for 3 days. After the solvent was removed, the cells were washed with 150 μL of serum-free DMEM, and DMEM (75 μL) containing 0.1% horse serum was added thereto. Thereafter, the 96-well plate was incubated in a 5% carbon dioxide atmosphere at 37° C. for 1 day for use in oxygenation reaction. In oxygenation reaction, the compound E (100 μM dimethyl sulfoxide solution) was added to a phosphate buffer saline containing Aβ (aggregated in advance for 3 hours, 40 μM) and 25 μL of the above cell solution (final concentration of Aβ: 10 μM, final concentration of compound E: 1 μM). The mixture was irradiated with an LED (wavelength: 780 nm) at a distance of approximately 5 cm at 37° C. for 5 minutes. The cells were incubated in a 5% carbon dioxide atmosphere at 37° C. for 48 hours. The cell viability was measured by using the Cell Count Reagent SF (NACALAI TESQUE, INC., Kyoto, Japan) with WST-8 (2-(2-methoxy-4-nitrophenyl)-3-(4-nitrophenyl)-5-(2,4-disulfophenyl)-2H-tetrazolium).
b: LC50 (dark) indicates the toxicity of a compound itself, and LC50 (light) indicates the phototoxicity of a compound. The PC 12 cells were placed in dark or subjected to photocatalytic treatment under light irradiation (wavelength: 660 nm), and incubated at 37° C. for 5 minutes, and then in a 5% carbon dioxide atmosphere at 37° C. for 48 hours, for which the cell viability was analyzed (n=5, mean±SEM).
b: The PC 12 cells were treated together with a photocatalyst (1 μM) at 37° C. for 5 minutes in dark or under light irradiation (wavelength: 780 nm), and thereafter the cell viability was analyzed (n=3, mean±SEM).

Aβ1-42 [7] = target: T1, Aβ1-42; test: Degree of oxygenation of pre-aggregated Aβ1-42 (MALDI-TOF MS), Test Example 10; assay type: biochemical; conditions: pre-aggregated Aβ1-42 20 μM, catalyst 2 μM, phosphate buffer pH 7.4, 660 nm, 37° C., 30 minutes
Method: Aβ1-42 isopeptide (concentration: 250 μM in 0.1% aqueous solution of trifluoroacetic acid), angiotensin IV (200 μM aqueous solution), Met-enkephalin (200 μM aqueous solution), and somatostatin (200 μM aqueous solution) were added to a phosphate buffer or phosphate buffer saline (pH 7.4) (with 0.1 M aqueous solution of sodium hydroxide, as necessary) so that a final peptide concentration of 20 μM or 40 μM (pH 7.4) was reached. Before being subjected to oxygenation reaction, the Aβ1-42 solution was incubated at 37° C. for 1 to 3 hours. The phosphate buffer containing 40 μM of Aβ was diluted with a Dulbecco's modified Eagle's medium (DMEM, Life Technologies) containing 0.1% horse serum and buffered with 25 mM of 4-(2-hydroxyethyl)-1-piperazineethanesulfonic acid (HEPES).
Solutions of the compounds with a final concentration of 2 μM were used for evaluation of oxygenation of Aβ1-42. Solutions of the compounds with a final concentration of 5 μM were used for evaluation of peptide selectivity. Each mixture was subjected to light irradiation with an LED (wavelength: 500, 660, or 780 nm) at a distance of approximately 5 to 10 cm at room temperature. A control group without light irradiation was additionally prepared. Reaction was analyzed through monitor analysis with a MALDI-TOF MS. Degree of oxygenation was determined as a ratio: degree of oxygenation (%)=(total of MS intensities for n[O] adducts)/(MS intensity for native+total of MS intensities for n[O] adducts)×100. Aliquots of each reaction solution were desalted with a ZipTip U-C18 (Merck Millipore), as necessary, before mass spectrometry.
a: A phosphate buffer (pH 7.4) solution containing pre-aggregated Aβ1-42 (20 μM, incubated at 37° C. for 3 hours) and a catalyst (2 μM) was subjected to light irradiation (wavelength: 660 nm) at 37° C. for 30 minutes. Thereafter, the reaction mixture was analyzed by using a MALDI-TOF MS.
a: A phosphate buffer (pH 7.4) containing pre-aggregated Aβ1-42 (20 μM, obtained through incubation at 37° C. for 3 hours) and a catalyst (2 μM) were subjected to light irradiation at 780 nm (14 mW) at 37° C. for 30 minutes. The reaction mixture was analyzed by using a MALDI-TOF MS.

T1 sequence (P05067 672-713): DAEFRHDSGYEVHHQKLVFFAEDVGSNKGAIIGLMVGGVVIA

Compound: CN(C)c1ccc(/C=C/C2=C(Br)C(/C=C/c3ccc4c(c3)CCCN4CCCCCC(=O)O)=[O+][B-](F)(C(F)(F)F)O2)cc1 (centres unmarked) [Compound K]
- toxicity under light irradiation (ranking) (PC 12 cells [1]): higher in the order of the compound J, the compound K, and the compound L; also recorded: iodine provides more reduced toxicity than in the case of bromine
- oxygenation of Aβ1-42 under light irradiation (Aβ1-42 [2]): oxygenation of the Aβ proceeded
- Maximum wavelength λmax (nm) [3]: 620 nm
- benzoylmethionine/oxygenated form ratio (%) [4]: higher as the concentration of glycerol, which has high viscosity, was higher
- stability of catalyst (ranking) [5]: higher in the order of BFCF3 (compound K)<BFCF2CF3 (compound J)
- CC50 (PC 12 cells [6]; PC 12 cells in dark, read-out: LC50 (dark)): 1.89 µM
- CC50 (PC 12 cells [6]; PC 12 cells, light irradiation 660 nm, read-out: LC50 (light)): 0.143 µM
- Degree of oxygenation (%) of Aβ42 (λ = 660 nm) (Aβ1-42 [7]): 86%

Source: patent US10669287B2, “Curcumin-boron complex and pharmaceutical containing same” (JAPAN SCIENCE AND TECHNOLOGY AGENCY, priority 2016, dated 2020)
